Data: US6596871B2, “Polymorphic forms of 6-[4-(1-cyclohexyl-1h-tetraol-5-yl)butoxy]-3,4-dihydro-2(1H)-quinolinone” (priority 2001, dated 2003)

Legend:
[1] = relative solubility inferred from DSC melting behaviour; format: physicochemical; conditions: suggested by lower melting point / weaker crystal packing forces in DSC thermogram (FIG. 8)
From the text: (§1) Characterization of Form A of cilostazol, Form B of cilostazol, and Form C of cilostazol was further completed using DSC thermograms, shown in FIGS. 3, 4, and 5, respectively, with DSC thermograms for combinations of Form A and Form B; Form B and Form C; and Forms A, B, and C are shown in FIGS. 6, 7, and 8 respectively. DSC data were generated using a Mettler-Toledo DSC 821^e (Columbus, Ohio) with a Julabo FT900 intercooler chiller (Julabo Company; Allentown, Pa.). In general, samples were analyzed in a vented, sealed aluminum pan. Because the endothermic peak may vary depending upon the rate of heating and the calibration and precision of the instrument, with the amount of peak variation dependent upon the heating rate used, all thermograms included herein were run under the same, consistent conditions: heating at 10° C. per minute under a nitrogen purge at 40 mL/minute.
FIG. 8 illustrates a DSC thermogram for the combination of Form A, Form B and Form C having a second heating cycle with a maximum temperature of about 110° C. with a holding time of about 30 minutes. The peaks in the third heating cycle show a Form A to Form B to Form C peak area ratio of approximately 8:2:1, respectively, with the relative amount of Form A, Form B and Form C further variable on the heat of enthalpy of each polymorphic form.

[2] = solid state phase transformation of disturbed/stressed sample on heating by DSC; format: physicochemical; conditions: sample disturbed (scratching/stress), heated by DSC from 30° C. to approximately 200° C. at 10° C. per minute
From the text: as §1, with “mL/minute. The resultant sample of Example 1A was disturbed with scratching, which caused the cilostazol sample to undergo a solid state phase transformation at approximately 119° C. followed by an endotherm of melt at approximately 160° C. (Form A) during heating by DSC from 30° C. to approximately 200° C. at 10° C. per minute. When the sample is stressed and reheated (as detailed in Example 2A), the sample undergoes a solid state phase transformation at approximately 147° C. followed by an endotherm of melt at about 160° C. […]” for “mL/minute.”

[3] = stability of the polymorphic form; format: physicochemical
[4] = bioavailability of cilostazol Form A; format: in vivo; conditions: Form A as prepared by the procedures of the '479 patent
[5] = aqueous solubility of cilostazol Form A; format: physicochemical; conditions: Form A as prepared by the procedures of the '479 patent

## O=C1CCc2cc(OCCCCc3nnnn3C3CCCCC3)ccc2N1 [Form B, 6-[4-(1-cyclohexyl-1H-tetrazol-5-yl)butoxy]-3,4-dihydro-2(1H)-quinolinone]
[1]
  solubility relative to Form A: more soluble than Form A
[2]
  solid state phase transformation temperature (to Form A): approximately 119 °C
[3]
  stability of the crystalline form: stable

## O=C1CCc2cc(OCCCCc3nnnn3C3CCCCC3)ccc2N1 [Form A, 6-[4-(1-cyclohexyl-1H-tetrazol-5-yl)butoxy]-3,4-dihydro-2(1H)-quinolinone]
[4]
  bioavailability: low
[5]
  aqueous solubility: low

## O=C1CCc2cc(OCCCCc3nnnn3C3CCCCC3)ccc2N1 [Form C, 6-[4-(1-cyclohexyl-1H-tetrazol-5-yl)butoxy]-3,4-dihydro-2(1H)-quinolinone]
[1]
  solubility relative to Form A: more soluble than Form A
[2]
  solid state phase transformation temperature (to Form A): approximately 147 °C
[3]
  stability of the crystalline form: stable
